What was measured:
[1] = Solubilisation in aqueous 10% saccharose monolaurate L-1695 solution (Example 12); type: physicochemical; conditions: aqueous solution of saccharose monolaurate L-1695, 10% by weight
Description: A solid solution is obtained by removing the water by freeze drying.

[2] = Water solubility of the active compound; type: physicochemical

| SMILES | amount that can be solubilised per ml [1] | water solubility [2] |
| --- | --- | --- |
| CC(=O)[C@H]1CC[C@H]2[C@@H]3CCC4=CC(=O)CC[C@]4(C)[C@H]3CC[C@]12C [Progesterone] | 3 mg per ml | – |
| Cc1ccc2c(-c3ccccc3)nc(=O)n(C(C)C)c2c1 [Proquazone, 1-isopropyl-7-methyl-4-phenyl-2(1H)-quinazolinone] | 3 mg per ml | below 0.1 g/100 ml |
